From patent publication US9896474B2, “(3A,9B,10A,13A,14B,17A,20S,22E)-ergosta-5,7,22-trien-3-ol and methods of preparing and using the same” (priority 2014, dated 2018)
Values after ≈ are worked out from the molar mass of the structure shown. Values joined by “and” are separate entries in the source; they are usually repeats but may differ in a detail not shown here. Identical values can stand only once.

Assays:
H22 liver cancer model = assay: Antitumor experiment against H22 tumor bearing mice; type: in vivo; details: 10 days; for Net weight variation (g) / Tumor weight: x ± s
Description: Antitumor Experiment of C310-6 Against H22 Tumor Bearing Mice
H22 tumor bearing mice were adopted to observe the effect of the anti-liver cancer of five classes of mixtures.
H22 tumor bearing mouse inoculated with the tumor for 8-13 days and in good condition was killed by dislocation. Body surface of the mouse was disinfected by alcohol. The tumors were separated from the mouse and placed in sterile petri dish containing normal saline in a sterile environment (super clean bench). The tumors were cut into small piece and transferred to a tissue homogenizer, the normal saline was added with a volume ratio of the tumor piece to the normal saline being 1:3, a resulting homogenate was put into a 50 mL sterile centrifuge tube. 0.2 mL of the homogenate was inoculated to right axilla of each C57BL/6 mouse by 1 mL syringe. The tumor cell suspension was prepared in the sterile environment (the super clean bench), and the serial operations from separation of the abdominal dropsy of the tumor to the tumor inoculation were accomplished in 60 min
(§1) Oral agent of C310-6: a certain weight of C310-6 sample was placed in a mortar, and Tween-80 having a volume of 2% of a certain volume of a solvent was added and fully ground. Thereafter, the normal saline was added and fully stirred to form a solution. Solutions having a concentration of the C310-6 sample of 24 mg/mL, 8 mg/mL, and 2.7 mg/mL were prepared.
(§2) Oral agent of CTX: CTX pill was removed from a film and a certain amount of the pill was placed in a mortar. A certain volume of normal saline was added, fully ground, and mixed to prepare a solution having a concentration of CTX to be 3.4 mg/mL.
(§3) 60 experimental mice were divided into 6 groups with each group having 10 mice, a half of the mice being female and another half of the mice being male. The groups are specifically as follows: 1) group administered with a low dose of C310-6 (27 mg/kg), 2) group administered with middle dose of C310-6 (80 mg/kg), 3) group administered with high dose of C310-6 (240 mg/kg), 4) group administered with CTX, 5) model group, and 6) blank control group. The above groups, except the model group and the blank control group, are administered with 0.3 mL of the drugs once a day after the injection of the tumor suspension, and the administration was lasted for 10 days. The model group and the blank control group are administered orally with equal volume of aqua solutions containing 2 v. % of Tween-80 for 10 days.
(§4) The weight and food intake of the mice were weighed and recorded every day, and a net weight of each mouse after tumor removal was calculated at the last time.
(§5) The separated tumor tissue was weighed, and the inhibition rate on the tumor growth was calculated according to the following equation: […]
Data of mice in each group were expressed by and were processed by SPSS software, each group was examined by one-way ANOVA.

Lewis lung cancer model = assay: Anti-Lewis tumor experiment (Lewis lung cancer bearing mouse); type: in vivo; details: Lewis mice, 10 days; for Net weight variation (g) / Tumor weight: x ± s
Description: The purpose of the experiment was adopting the Lewis tumor bearing mouse model to observe the antitumor effect of C310-6.
Tumor bearing mouse inoculated with the tumor for 8-13 days and in good condition was killed by dislocation. Body surface of the mouse was disinfected by alcohol. The tumors were separated from the mouse and placed in sterile petri dish containing normal saline in a sterile environment (super clean bench). The tumors were cut into small piece and transferred to a tissue homogenizer, the normal saline was added with a volume ratio of the tumor piece to the normal saline being 1:3, a resulting homogenate was put into a 50 mL sterile centrifuge tube. 0.2 mL of the homogenate was inoculated to right axilla of each KM mouse by 1 mL syringe. The tumor cell suspension was prepared in the sterile environment (the super clean bench), and the serial operations from the tumor separation to the tumor inoculation were accomplished in 60 min
as §1, §2
as §3, with “0.2” for “0.3”
as §4, §5
Data of mice in each group were expressed by corresponding data and were processed by SPSS software, each group was examined by one-way ANOVA.

[1] = system: human hepatoma cells Hep-g2; assay: MTT assay on human hepatoma cells Hep-g2; type: cell-based; details: HepG2, 48 hrs, OD 490 nm, read-out: 1050 value (cell viability curve)
Experimental: a. 250 mg of 3-(4,5-dimethylthiazol-2-yl)-2,5-diphenyltetrazolium bromide (MTT) was dissolved by 50 mL of phosphate buffered saline (PBS) having a concentration of 0.01 mol/L and PH=7.45 to yield a MTT solution having a final concentration of 5 mg/mL. The MTT solution was dispensed and protected against light at the temperature of −20° C. after filtration and sterilization.
b. A suspension of single cell line was prepared and inoculated into 96-well plate (cells were diluted to a concentration of 4×10^4/mL by the F-12K basic culture medium, 100 μL diluted cells were added to each well and cultivated at 37° C., 5% CO2 for 20 hrs, each group was provided with 4 parallel samples).
c. The culture medium was removed; and new culture mediums were prepared according to serial concentration of the antitumor drug (C310-6), each well was added with 100 μL of the new culture medium and cells were cultivated for 48 hrs.
d. 20 μL of MTT solution having the concentration of 5 mg/mL was added to each well for incubating the cells for 4 hrs.
e. […]
f. OD values were measured by a microplate reader, λ=490 nm
g. A cell viability curve was charted, 1050 value was calculated to be 14.152 μg/mL, which means that the compound has excellent human hepatoma cells Hep-g2 activity resistance.

[2] = system: human lung cancer cells A549; assay: MTT assay on human lung cancer cells A549; type: cell-based; details: A549 section, 48 hrs, OD 490 nm, read-out: 1050 value (cell viability curve)
[3] = system: human hepatoma cells Hep-g2; assay: iCELLigence real-time cell-analyzer (RTCA) growth monitoring, Hep-g2; type: cell-based; details: 1.6-100 μg/mL, 48 hrs, FIG. 6
Experimental: 1. Eight-well plate (E-Plate L8) supplied by ACEA Bio (Hangzhou) Co. Ltd. was combined with an iCELLigence real-time cell-analyzer (RTCA). 150 μL of a complete F-12K medium was added to each well and the eight-well plate was placed in an incubator at a temperature of 37° C. and an atmosphere of 5% CO2, and the background data were regulated to 40-130. The compound C310-6 was fully dissolved by dimethyl sulfoxide to concentrations of 100 mg/mL, 50 mg/mL, 25 mg/mL, 12.5 mg/mL, 6.3 mg/mL, 3.1 mg/mL, and 1.6 mg/mL, and then diluted to by the complete F-12K medium obtain working solutions having concentrations of 10 mg/mL, 5 mg/mL, 2.5 mg/mL, 1.25 mg/mL, 0.63 mg/mL, 0.31 mg/mL, and 0.16 mg/mL. Well cultivated human hepatoma cells Hep-g2 were digested by trypsin and diluted into live cell suspensions with a concentration of 4×10^4/mL. Thereafter, 345 μL of the live cell suspension of C310-6 was inoculated to each well of an eight-well plate, and then 5 μL of the working solution was added to each well to enable final concentrations of the C310-6 compound to be 100 μg/mL, 50 μg/mL, 25 μg/mL, 12.5 μg/mL, 6.3 μg/mL, 3.1 μg/mL, and 1.6 μg/mL. An eighth hole was added with the complete F-12K medium containing 1 wt. % of dimethyl sulfoxide as a blank control group, and was displaced into the incubator at 37° C. and 5% CO2 for 48 hrs.

[4] = system: human lung cancer cells A549; assay: iCELLigence real-time cell-analyzer (RTCA) growth monitoring, A549; type: cell-based; details: 1.6-100 μg/mL, 48 hrs, FIG. 7

CC(C)[C@@H](C)/C=C/[C@H](C)[C@@H]1CC[C@@H]2C3=CC=C4C[C@H](O)CC[C@@]4(C)[C@@H]3CC[C@]21C [C310-6, (3α,9β,10α,13α,14β,17α,20S,22E)-ergosta-5,7,22-trien-3-ol]
Liver transfer rate (%) (H22 liver cancer model; 27 mg/kg oral once a day): 0% | Survival rate (%) (H22 liver cancer model; 27 mg/kg oral once a day): 100% | Tumor inhibition rate (%) (H22 liver cancer model; 27 mg/kg oral once a day): 23.4% | Net weight variation (g) (H22 liver cancer model; 27 mg/kg oral once a day): 6.92 ± 2.65∘∘ g | Tumor weight (H22 liver cancer model; 27 mg/kg oral once a day): 0.42 ± 0.60 g | Liver transfer rate (%) (H22 liver cancer model; 80 mg/kg oral once a day): 0% | Survival rate (%) (H22 liver cancer model; 80 mg/kg oral once a day): 100% | Tumor inhibition rate (%) (H22 liver cancer model; 80 mg/kg oral once a day, 80 mg/kg): > 40% and 41.1% | Net weight variation (g) (H22 liver cancer model; 80 mg/kg oral once a day): 7.78 ± 3.72∘∘ g | Tumor weight (H22 liver cancer model; 80 mg/kg oral once a day): 0.32 ± 0.43 g | Liver transfer rate (%) (H22 liver cancer model; 240 mg/kg oral once a day): 0% | Survival rate (%) (H22 liver cancer model; 240 mg/kg oral once a day): 100% | Tumor inhibition rate (%) (H22 liver cancer model; 240 mg/kg oral once a day, 240 mg/kg): > 40% and 64.4% | Net weight variation (g) (H22 liver cancer model; 240 mg/kg oral once a day, weight after tumor removal vs original): 5.70 ± 4.05*※∘∘ g | Tumor weight (H22 liver cancer model; 240 mg/kg oral once a day): 0.19 ± 0.18 g | Lung cancer transmission rate (%) (Lewis lung cancer model; 27 mg/kg oral once a day): 40% | Survival rate (%) (Lewis lung cancer model; 27 mg/kg oral once a day): 100% | Tumor inhibition rate (%) (Lewis lung cancer model; 27 mg/kg oral once a day): 15.76% | Net weight variation (g) (Lewis lung cancer model; 27 mg/kg oral once a day): −0.36 ± 1.33**※※ g | Tumor weight (Lewis lung cancer model; 27 mg/kg oral once a day): 1.42 ± 0.94 g | Lung cancer transmission rate (%) (Lewis lung cancer model; 80 mg/kg oral once a day): 50% | Survival rate (%) (Lewis lung cancer model; 80 mg/kg oral once a day): 100% | Tumor inhibition rate (%) (Lewis lung cancer model; 80 mg/kg oral once a day): 28.39% | Net weight variation (g) (Lewis lung cancer model; 80 mg/kg oral once a day): −0.95 ± 1.30**※※ g | Tumor weight (Lewis lung cancer model; 80 mg/kg oral once a day): 1.21 ± 0.26 g | Lung cancer transmission rate (%) (Lewis lung cancer model; 240 mg/kg oral once a day): 30% | Survival rate (%) (Lewis lung cancer model; 240 mg/kg oral once a day): 100% | Tumor inhibition rate (%) (Lewis lung cancer model; 240 mg/kg oral once a day): 44.59% | Net weight variation (g) (Lewis lung cancer model; 240 mg/kg oral once a day): −0.61 ± 1.36**※※ g | Tumor weight (Lewis lung cancer model; 240 mg/kg oral once a day): 0.93 ± 0.45 g | IC50 [1]: 14.2 µg/mL (≈ 35.7 µM) | IC50 [2]: 14.2 µg/mL (≈ 35.7 µM) | growth of human hepatoma cells Hep-g2 (real-time data) [3]: inhibited | growth of human lung cancer cells A549 (real-time data) [4]: inhibited

O=P1(N(CCCl)CCCl)NCCCO1 (centres unmarked) [CTX, cyclophosphamide, reference compound]
Liver transfer rate (%) (H22 liver cancer model; 20 mg/kg oral once a day): 0% | Survival rate (%) (H22 liver cancer model; 20 mg/kg oral once a day): 100% | Tumor inhibition rate (%) (H22 liver cancer model; 20 mg/kg oral once a day): 52.9% | Net weight variation (g) (H22 liver cancer model; 20 mg/kg oral once a day): 1.73 ± 2.73**※※ g | Tumor weight (H22 liver cancer model; 20 mg/kg oral once a day): 0.25 ± 0.21 g | Lung cancer transmission rate (%) (Lewis lung cancer model; 20 mg/kg oral once a day): 20% | Survival rate (%) (Lewis lung cancer model; 20 mg/kg oral once a day): 100% | Tumor inhibition rate (%) (Lewis lung cancer model; 20 mg/kg oral once a day): 46.29% | Net weight variation (g) (Lewis lung cancer model; 20 mg/kg oral once a day): −0.94 ± 1.03**※※ g | Tumor weight (Lewis lung cancer model; 20 mg/kg oral once a day): 0.90 ± 0.39 g
